Values of other authors as cited in publication PMC8435859 (Frontiers in Cellular and Infection Microbiology, 2021).
Values after ≈ are worked out from the molar mass of the structure shown. Where a name gives a salt, the structure may show the parent alone.

What was measured:
CYP3A4 = tested on: CYP3A4; set-up: method as in ref Cheng SenSung et al., Journal of Agricultural & Food Chemistry, 2012, 60(1):124-8; settings: ref Cheng SenSung et al., Journal of Agricultural & Food Chemistry, 2012, 60(1):124-8; read-out: Ki, CYP3A4 inhibition; cited from earlier work
CYP2B6 = tested on: CYP2B6; set-up: method as in ref Cheng SenSung et al., Journal of Agricultural & Food Chemistry, 2012, 60(1):124-8; settings: ref Cheng SenSung et al., Journal of Agricultural & Food Chemistry, 2012, 60(1):124-8; read-out: Ki, CYP2B6 inhibition; cited from earlier work
GABA uptake = tested on: GABA uptake; set-up: method as in Johnston G A R et al., Nature; settings: ref Johnston G A R et al., Nature; read-out: IC50, inhibition of GABA uptake; cited from earlier work
EV71 = settings: ref Choi HJ et al., Biomol Ther (Seoul). 2016 Sep 1;24(5):552-8; cited from earlier work
MCF-7 = tested on: MCF-7; set-up: method as in ref Sales SM et al., Biomedicine & Pharmacotherapy, 2018, 103:1577-1584; settings: one value printed for MCF-7 & MDA-MB-231; ref Sales SM et al., Biomedicine & Pharmacotherapy, 2018, 103:1577-1584; read-out: IC50, decreased MCF-7 survival; cited from earlier work
H. pylori = tested on: H. pylori; set-up: method as in ref Sales SM et al., Biomedicine & Pharmacotherapy, 2018, 103:1577-1584; settings: ref Sales SM et al., Biomedicine & Pharmacotherapy, 2018, 103:1577-1584; cited from earlier work
MDA-MB-231 = tested on: MDA-MB-231; set-up: method as in ref Sales SM et al., Biomedicine & Pharmacotherapy, 2018, 103:1577-1584; settings: one value printed for MCF-7 & MDA-MB-231; ref Sales SM et al., Biomedicine & Pharmacotherapy, 2018, 103:1577-1584; read-out: IC50, decreased MDA-MB-231 survival; cited from earlier work

Q: What does the source list for `C[C@@H]1CC[C@H]2C(C)(C)[C@H]3C[C@@]12CC[C@@]3(C)O` [Cedrol]?
A: Ki (CYP3A4): 3.4 µM; Ki (CYP2B6): 0.9 µM

Q: Which IC50 (GABA uptake) does the source give for `O=C(O)C1=CCCNC1` [Guvacine hydrochloride] here?
A: Its IC50 is 10 µM.

Q: Which “IC50, antiviral activity against Enterovirus 71” value (EV71) does the source give for `O=c1cc(-c2ccccc2)oc2c(O)c(O)cc(O)c12` [Norwogonin] here?
A: The value was “Norwogonin, isolated from Scutellaria baicalensis Georgi, possesses antiviral activity against Enterovirus 71 (IC50: 31.83 μg/ml)”.

Q: What does the source list for `CCCCCCCCOC(=O)c1cc(O)c(O)c(O)c1` [Octyl gallate]?
A: IC50 (MCF-7): 40 µM; minimum inhibitory concentration (MIC) against H. pylori (H. pylori): 125 µg/mL (≈ 443 µM); IC50 (MDA-MB-231): 40 µM
